From ChEMBL document CHEMBL6127136, “Discovery of 1-(Phenylsulfonyl)-1,2,3,4-tetrahydroquinoline Derivative as Orally Bioavailable and Safe RORγt Inverse Agonists for Potential Treatment of Rheumatoid Arthritis” (J Med Chem, 2024)
The source made the active and inactive calls. No cut-off for these calls is given here.

Experiments:
[1] = target: T1, Nuclear receptor ROR-gamma (Homo sapiens, UniProt P51449); assay: Inverse agonist activity at N-terminal 6-His-tagged/APC-labeled human RORgammat LBD extracted from Escherichia coli assessed as inhibition of europium-labeled SRC-1 recruitment incubated for 3 hrs by TR-FRET analysis
T1 sequence (P51449 whole entry): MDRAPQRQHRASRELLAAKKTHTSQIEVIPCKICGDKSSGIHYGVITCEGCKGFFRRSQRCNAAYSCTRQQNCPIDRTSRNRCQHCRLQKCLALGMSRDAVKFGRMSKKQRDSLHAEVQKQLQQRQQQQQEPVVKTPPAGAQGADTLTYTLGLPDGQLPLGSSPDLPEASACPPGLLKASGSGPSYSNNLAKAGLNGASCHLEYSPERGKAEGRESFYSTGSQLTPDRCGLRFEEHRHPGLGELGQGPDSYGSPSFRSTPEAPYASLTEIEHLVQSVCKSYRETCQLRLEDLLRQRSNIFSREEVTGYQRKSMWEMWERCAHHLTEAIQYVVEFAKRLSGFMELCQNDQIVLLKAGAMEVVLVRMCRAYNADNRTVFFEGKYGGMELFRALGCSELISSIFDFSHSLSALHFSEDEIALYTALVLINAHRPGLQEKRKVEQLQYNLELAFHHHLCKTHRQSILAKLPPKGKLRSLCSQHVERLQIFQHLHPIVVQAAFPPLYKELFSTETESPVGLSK

[2] = target: T1, Nuclear receptor ROR-gamma; assay: Inverse agonist activity at GAL4 DNA-binding domain fused RORgamma (unknown origin) transfected in HEK293T cells co-transfected with GAL4-promoter driven luciferase reporter gene assessed as inhibition of RORgammat transcription incubated for 18 to 20 hrs by plate reader analysis; format: cell-based
HeLa = assay: Antiproliferative activity against human HeLa cells assessed as inhibition of colony formation at 2 to 8 uM incubated for 7 days by crystal violet staining based light microscopic analysis; format: toxicity, cell-based; settings: 168 h, dose 2-8 µM, time 7 day
HUVEC = assay: Antiproliferative activity against HUVEC cells assessed as inhibition of colony formation at 2 to 8 uM incubated for 7 days by crystal violet staining based light microscopic analysis; format: toxicity, cell-based; settings: human, 168 h, dose 2-8 µM, time 7 day
[3] = Toxicity in chicken type II collagen-induced arthritis DBA/1 mouse model assessed as behavioral abnormalities at 20 mg/kg/day, po measured after 42 days; format: organism-based; settings: in vivo, 1008 h, time 42 day
[4] = Toxicity in chicken type II collagen-induced arthritis DBA/1 mouse model assessed as body weight loss at 20 mg/kg/day, po measured after 42 days; format: organism-based; settings: in vivo, 1008 h, time 42 day
Mus musculus [5] = assay: Antiarthritic activity in chicken type II collagen-induced arthritis DBA/1 mouse model assessed as reduction in clinical score at 20 mg/kg/day, po measured after 42 days; format: functional, organism-based; settings: time 42.0 day
[6] = Toxicity in chicken type II collagen-induced arthritis DBA/1 mouse model assessed as increase in thymic cortex to medulla ratio at 20 mg/kg/day, po administered for 2 weeks by H and E staining based analysis; format: organism-based; settings: in vivo, 336 h
[7] = Toxicity in chicken type II collagen-induced arthritis DBA/1 mouse model assessed as signs of thymic enlargement at 20 mg/kg/day, po administered for 2 weeks by H and E staining based analysis; format: organism-based; settings: in vivo, 336 h
[8] = Toxicity in chicken type II collagen-induced arthritis DBA/1 mouse model assessed as signs of lymphoma at 20 mg/kg/day, po administered for 2 weeks by H and E staining based analysis; format: organism-based; settings: in vivo, 336 h
[9] = Toxicity in chicken type II collagen-induced arthritis DBA/1 mouse model assessed as morphological changes in thymocytes at 20 mg/kg/day, po administered for 2 weeks by H and E staining based analysis; format: organism-based; settings: in vivo, 336 h
Mus musculus [10] = assay: Antiarthritic activity in chicken type II collagen-induced arthritis DBA/1 mouse model assessed as improvement in arthritic symptoms at 20 mg/kg/day, po administered for 2 weeks by H and E staining based analysis; format: functional, organism-based
Mus musculus [11] = assay: Antiarthritic activity in chicken type II collagen-induced arthritis DBA/1 mouse model assessed as reduction in fore paw erythema at 20 mg/kg/day, po administered for 2 weeks by H and E staining based analysis; format: functional, organism-based
Mus musculus [12] = assay: Antiarthritic activity in chicken type II collagen-induced arthritis DBA/1 mouse model assessed as reduction in fore paw swelling at 20 mg/kg/day, po administered for 2 weeks by H and E staining based analysis; format: functional, organism-based
Mus musculus [13] = assay: Antiarthritic activity in chicken type II collagen-induced arthritis DBA/1 mouse model assessed as reduction in fore paw thickness at 20 mg/kg/day, po administered for 2 weeks by H and E staining based analysis; format: functional, organism-based
Mus musculus [14] = assay: Antiarthritic activity in chicken type II collagen-induced arthritis DBA/1 mouse model assessed as reduction in hind paw erythema at 20 mg/kg/day, po administered for 2 weeks by H and E staining based analysis; format: functional, organism-based
Mus musculus [15] = assay: Antiarthritic activity in chicken type II collagen-induced arthritis DBA/1 mouse model assessed as reduction in hind paw swelling at 20 mg/kg/day, po administered for 2 weeks by H and E staining based analysis; format: functional, organism-based
Mus musculus [16] = assay: Antiarthritic activity in chicken type II collagen-induced arthritis DBA/1 mouse model assessed as reduction in hind paw thickness at 20 mg/kg/day, po administered for 2 weeks by H and E staining based analysis; format: functional, organism-based

SMILES | IC50 [1] | also measured
CCc1ccc2c(c1)CCC(C)(C)N2S(=O)(=O)c1ccc(OCC2CCOCC2)c(CO)c1 | 310 nM | –
CC[C@H]1CCc2cc(C(C)C)ccc2N1S(=O)(=O)c1ccc(OCC2CCOCC2)c(CO)c1 | 8.4 nM | IC50 [2]: 22.1 nM
CCc1ccc2c(c1)CCCN2S(=O)(=O)c1ccc(OCC2CCOCC2)c(CO)c1 | 858 nM | –
CCc1ccc2c(c1)CCC(CC)N2S(=O)(=O)c1ccc(OCC2CCOCC2)c(CO)n1 (racemic) | 212 nM | –
CCc1ccc2c(c1)CCC(CC)N2S(=O)(=O)c1ccc(OCc2ccncn2)c(CO)c1 (racemic) | 300 nM | –
CCc1ccc2c(c1)CCC(CC)N2S(=O)(=O)c1ccc(OCCC(C)(C)O)c(CO)c1 (racemic) | 459 nM | –
CC1CCc2cc(C#N)ccc2N1S(=O)(=O)c1ccc(OCC2CCOCC2)c(CO)c1 (racemic) | 689 nM | –
CCc1ccc2c(c1)CCC(CC)N2S(=O)(=O)c1ccc(OCC2CCOCC2)c(S(C)(=O)=O)c1 (racemic) | 1860 nM | –
CCc1ccc2c(c1)CC(C)CN2S(=O)(=O)c1ccc(OCC2CCOCC2)c(CO)c1 (racemic) | 36 nM | –
CCc1ccc2c(c1)CCC(CC)N2S(=O)(=O)c1ccc(C(CO)N2CCOCC2)c(CO)c1 (racemic) | 3120 nM | –
CCc1ccc2c(c1)CCC(CC)N2S(=O)(=O)c1ccc(OCC2CCOCC2)c(CO)c1 (racemic) | 11 nM | Activity (HeLa): Non-Toxic; Activity (HUVEC): Non-Toxic
CCc1ccc2c(c1)CCC(CC)N2S(=O)(=O)c1ccc(OC2CN(C(C)=O)C2)c(CO)c1 (racemic) | 1760 nM | –
CCc1ccc2c(c1)CCC(C)N2S(=O)(=O)c1ccc(OCC2CCOCC2)c(CO)c1 (racemic) | 24 nM | –
CCc1ccc2c(c1F)CCC(CC)N2S(=O)(=O)c1ccc(OCC2CCOCC2)c(CO)c1 (racemic) | 14 nM | –
CCC1CCc2cc(C(F)(F)F)ccc2N1S(=O)(=O)c1ccc(OCC2CCOCC2)c(CO)c1 (racemic) | 21 nM | –
CCc1ccc2c(c1)C(C)CCN2S(=O)(=O)c1ccc(OCC2CCOCC2)c(CO)c1 (racemic) | 655 nM | –
CCc1ccc2c(c1)CCC(CC)N2S(=O)(=O)c1ccc(OC2CCN(S(C)(=O)=O)CC2)c(CO)c1 (racemic) | 170 nM | –
CCC1CCc2cc(CC(C)(F)F)ccc2N1S(=O)(=O)c1ccc(OCC2CCOCC2)c(CO)c1 (racemic) | 16 nM | –

SMILES | IC50 [1] | also measured
CCc1ccc2c(c1)CCC(CC)N2S(=O)(=O)c1ccc(C(O)CC2CCOCC2)c(CO)c1 (racemic) | 201 nM | –
CCC1CCc2cc(C(C)(C)O)ccc2N1S(=O)(=O)c1ccc(OCC2CCOCC2)c(CO)c1 (racemic) | 1400 nM | –
CCc1ccc2c(c1)CCC(CC)N2S(=O)(=O)c1ccc(OCCS(C)(=O)=O)c(CO)c1 (racemic) | 1430 nM | –
CC1CCc2cc(C3CC3)ccc2N1S(=O)(=O)c1ccc(OCC2CCOCC2)c(CO)c1 (racemic) | 21 nM | –
CCc1ccc2c(c1)CCC(C(F)(F)F)N2S(=O)(=O)c1ccc(OCC2CCOCC2)c(CO)c1 (racemic) | 23 nM | –
CCC1CCc2cc(CC(F)(F)F)ccc2N1S(=O)(=O)c1ccc(OCC2CCOCC2)c(CO)c1 (racemic) | 23 nM | –
CCc1ccc2c(c1)CCC(CC)N2S(=O)(=O)c1ccc(OCC2CCS(=O)(=O)CC2)c(CO)c1 (racemic) | 146 nM | –
C=C(C)c1ccc2c(c1)CCC(CC)N2S(=O)(=O)c1ccc(OCC2CCOCC2)c(CO)c1 (racemic) | 12 nM | –
CCc1ccc2c(c1)CCC(C(C)C)N2S(=O)(=O)c1ccc(OCC2CCOCC2)c(CO)c1 (racemic) | 2 nM | –
CCc1ccc2c(c1)CCC(CO)N2S(=O)(=O)c1ccc(OCC2CCOCC2)c(CO)c1 (racemic) | 3420 nM | –
CCC1CCc2cc(C(C)(C)C)ccc2N1S(=O)(=O)c1ccc(OCC2CCOCC2)c(CO)c1 (racemic) | 70 nM | –
CCc1ccc2c(c1)CCC(CC)N2S(=O)(=O)c1ccc(OCC2CCOCC2)c(S(N)(=O)=O)c1 (racemic) | 576 nM | –
CCc1cnc2c(c1)CCC(CC)N2S(=O)(=O)c1ccc(OCC2CCOCC2)c(CO)c1 (racemic) | 35 nM | –
CCc1ccc2c(c1)CCC(CC(C)C)N2S(=O)(=O)c1ccc(OCC2CCOCC2)c(CO)c1 (racemic) | 21 nM | –
CCc1ccc2c(c1)CC(CC)CN2S(=O)(=O)c1ccc(OCC2CCOCC2)c(CO)c1 (racemic) | 32 nM | –
C=Cc1ccc2c(c1)CCC(CC)N2S(=O)(=O)c1ccc(OCC2CCOCC2)c(CO)c1 (racemic) | 36 nM | –
O=C([O-])Cc1ccccc1Nc1c(Cl)cccc1Cl.[Na+] [DICLOFENAC SODIUM] | – | Activity [3]: Non-Toxic; Activity [4]: Non-Toxic; Activity (Mus musculus [5]): Active; Activity [6]: Toxic; Activity [7]: Non-Toxic; Activity [8]: Non-Toxic; Activity [9]: Non-Toxic; Activity (Mus musculus [10]): Active; Activity (Mus musculus [11]): Active; Activity (Mus musculus [12]): Active; Activity (Mus musculus [13]): Active; Activity (Mus musculus [14]): Active; Activity (Mus musculus [15]): Active; Activity (Mus musculus [16]): Active
